The values that follow come from patent US20100022559A1, “BISOXIMES AS FUNGICIDES” (BAYER CROPSCIENCE AG, priority 2006, published 2010).

Data set [1] relates to green peach aphid (Myzus persicae). Description: Myzus test (spray treatment). The conditions noted are these: active compound concentration 500 ppm, after 5 days, chinese cabbage leaf discs. The class given is in vivo. As for the experimental part:
[table] To produce a suitable preparation of active compound, 1 part by weight of active compound is mixed with the stated amounts of solvents and emulsifier, and the concentrate is diluted with emulsifier-containing water to the desired concentration. Discs of chinese cabbage (Brassica pekinensis) which are infested by all stages of the green peach aphid (Myzus persicae) are sprayed with an active compound preparation of the desired concentration. After the desired period of time, the effect in % is determined. 100% means that all aphids have been killed; 0% means that none of the aphids have been killed.

A short description of data set [2]: logP determination by HPLC on a reversed-phase column (C 18), EEC Directive 79/831 Annex V.A8. The class given is physicochemical. As for the experimental part:
The stated logP values were determined in accordance with EEC Directive 79/831 Annex V.A8 by HPLC (high performance liquid chromatography) on a reversed-phase column (C 18). Temperature: 43° C.

Another data set has as its system Puccinia recondita. Description: Puccinia Recondita Test (Cereal)/Seed Treatment. The conditions noted are these: 50 g/100 kg of seed; seed treatment; evaluation about 7 days after inoculation. The class given is in vivo. As for the experimental part:
Puccinia Recondita Test (Cereal)/Seed Treatment
The active compounds are applied as liquid dressings, 1 part by weight of the active compound being mixed with 10 parts by weight of a solvent. For each concentration tested, the appropriate volume from the mixture is pipetted. For the dressing, the preparation is pipetted onto the seed and the seed is shaken in a closed glass bottle for 3 minutes. At 3×12 grains, the seed is sown into a soil/sand mixture in pots. The pots are initially incubated at 5° C. in the dark for 14 days and then cultivated in a greenhouse at a temperature of about 10° C. and 15 hours of light per day for a further 14 days. The plants are then sprayed with a spore suspension of Puccinia recondita and subsequently placed in an incubation cabin at 18° C. and 100% relative atmospheric humidity for 48 hours. The plants are then placed in a greenhouse at a temperature of about 18° C. and a relative atmospheric humidity of 80%. Evaluation is carried out about 7 days after the inoculation. 0% means an efficacy which corresponds to that of the control, whereas an efficacy of 100% means that no infection is observed.

In data set [3] the test system is larvae of the mustard beetle (Phaedon cochleariae). Kind of data set: Phaedon test (spray treatment). The class given is in vivo. To be noted: active compound concentration 500 ppm, after 7 days, chinese cabbage leaf discs. As for the experimental part:
[table] To produce a suitable preparation of active compound, 1 part by weight of active compound is mixed with the stated amounts of solvents and emulsifier, and the concentrate is diluted with emulsifier-containing water to the desired concentration. Discs of chinese cabbage (Brassica pekinensis) are sprayed with an active compound preparation of the desired concentration and, after drying, populated with larvae of the mustard beetle (Phaedon cochleariae). After the desired period of time, the effect in % is determined. 100% means that all beetle larvae have been killed; 0% means that none of the beetle larvae have been killed.

In data set [1], `CC(=NOCC1(CON=C(C)c2cccc(C)n2)CC(C(C)(C)C)=NO1)c1cccc(C)n1` (centres unmarked) [Compound 600] showed an efficacy of 100%. Besides, the logP in data set [2] (method marked [b] in Table 1) was 3.85^[b].

In turn, `CC(=NOCC(C)(C)CON=C(C)c1cccc(C)n1)c1cccc(C)n1` (single isomer, unassigned) [Compound 141] showed an efficacy in the data set with Puccinia recondita not below 70%. In data set [2] (method marker [b], isomer A / isomer B / isomer mixture as noted in the cell), the logP is 4.40^[b] (isomer A).

Regarding `CCCC1=NOC(CON=C(CCC)c2cccc(C)n2)(CON=C(CCC)c2cccc(C)n2)C1` (centres unmarked) [Compound 618], the efficacy in data set [3] turned out to be 100%. For the same compound, the logP in data set [2] (method marked [b] in Table 1) is 5.71^[b].

For `C=CCCC(=NOCC(C)CON=C(C)c1cccc(C)n1)c1ncccc1C` (centres unmarked) [compound 424], the logP in data set [2] (value marked [b]) is 4.10^[b].

In the case of `C=C(CON=C(CC)c1nc(C)c(C)c(C)n1)CON=C(CC)c1nc(C)c(C)c(C)n1` [compound 516], the logP in data set [2] (value marked [b]) was 4.07^[b].
